Consider 18 compounds from PubChem BioAssay AID228 (DTP/NCI, 2004).

In this test the test system is BDF1 mice, Friend leukemia sc, tumor weight T/C. Put plainly: NCI In Vivo Anticancer Drug Screen. Data for tumor model Friend Virus Leukemia (Solid) (subcutaneous) in B6D2F1 (BDF1) mice. The conditions noted are these: endpoint: mean tumor weight, higher = larger tumour. Here is the method: The antitumor activity of compounds was measured in mice bearing transplantable tumors. Survival or tumor size were measured and the results are expressed as the measurement made in the treated group (T) divided by the measurement made in the vehicle treated control group (C). The tumor model used in this assay is Friend Virus Leukemia (Solid) (subcutaneous) in B6D2F1 (BDF1) mice

The mark [1] stands for this setting: dose: 25.0 mg/kg/injection, schedule: Q01DX011 (sc), vehicle: steriod suspending solution.
Where [2] appears, read: dose: 15.0 mg/kg/injection, schedule: Q01DX011 (ip), vehicle: carboxymethylcellulose (CMC).
[3] abbreviates: dose: 25.0 mg/kg/injection, schedule: Q01DX011 (ip), vehicle: carboxymethylcellulose (CMC).
The mark [4] stands for this setting: dose: 50.0 mg/kg/injection, schedule: Q01DX011 (ip), vehicle: carboxymethylcellulose (CMC).
Setting [5] is: dose: 100.0 mg/kg/injection, schedule: Q01DX011 (ip), vehicle: carboxymethylcellulose (CMC).
[6] abbreviates: dose: 3.0 mg/kg/injection, schedule: Q01DX011 (ip), vehicle: carboxymethylcellulose (CMC).
The mark [7] stands for this setting: dose: 220.0 mg/kg/injection, schedule: Q01DX011 (ip), vehicle: carboxymethylcellulose (CMC).
Setting [8] is: dose: 50.0 mg/kg/injection, schedule: Q01DX011 (ip), vehicle: saline.
Setting [9] is: dose: 9.37 mg/kg/injection, schedule: Q01DX011 (ip), vehicle: saline.
[10] abbreviates: dose: 18.75 mg/kg/injection, schedule: Q01DX011 (ip), vehicle: saline.
Where [11] appears, read: dose: 37.5 mg/kg/injection, schedule: Q01DX011 (ip), vehicle: saline.
Setting [12] is: dose: 75.0 mg/kg/injection, schedule: Q01DX011 (ip), vehicle: saline.
The mark [13] stands for this setting: dose: 200.0 mg/kg/injection, schedule: Q01DX011 (ip), vehicle: carboxymethylcellulose (CMC).

“And” between values parts separate entries of the source, which are not always exact repeats. Equal values may be shown once. Records with an inconclusive call do not appear.

Consider `CC(=O)O[C@]1(C(C)=O)CC[C@H]2[C@@H]3C[C@H](C)C4=CC(=O)C=C[C@]4(C)[C@@]3(F)[C@@H](O)C[C@@]21C`, for which the T/C under setting [1] is 35 % of control; the T/C (dose: 37.5 mg/kg/injection, schedule: Q01DX011 (sc), vehicle: steriod suspending solution) was 34 % of control; the T/C (dose: 300.0 mg/kg/injection, schedule: Q01DX011 (sc), vehicle: steriod suspending solution) was 11 % of control.

As for `N#[N+]c1cnc([O-])[nH]c1=O`, the T/C (dose: 1.3 mg/kg/injection, schedule: Q01DX011 (ip), vehicle: carboxymethylcellulose (CMC)) is 113 % of control and the T/C (dose: 11.5 mg/kg/injection, schedule: Q01DX011 (ip), vehicle: carboxymethylcellulose (CMC)) is 49 % of control.

Take `CCN(CC)c1ccc2cc3ccc(=[N+](CC)CC)cc-3oc2c1`: for the setting “dose: 5.0 mg/kg/injection, schedule: Q01DX011 (ip), vehicle: carboxymethylcellulose (CMC)”, the T/C was 102 % of control.

As to `C[C@]12C=CC(=O)C=C1CC[C@@H]1[C@@H]2C(=O)C[C@@]2(C)[C@H]1CC[C@]2(O)C(=O)CO`, the T/C reads like this: (dose: 10.0 mg/kg/injection, schedule: Q01DX011 (sc), vehicle: steriod suspending solution) 92 % of control; (dose: 20.0 mg/kg/injection, schedule: Q01DX011 (sc), vehicle: steriod suspending solution) 27 % of control; under setting [1], 23 % of control; (dose: 50.0 mg/kg/injection, schedule: Q01DX011 (sc), vehicle: steriod suspending solution) 11 % of control; (dose: 100.0 mg/kg/injection, schedule: Q01DX011 (sc), vehicle: steriod suspending solution) 9 % of control; (dose: 200.0 mg/kg/injection, schedule: Q01DX011 (sc), vehicle: steriod suspending solution) 11 % of control.

In the case of `NNC(=O)NC(=O)NN`, the T/C (dose: 9.62 mg/kg/injection, schedule: Q01DX011 (ip), vehicle: carboxymethylcellulose (CMC)) is 90 % of control; the T/C (dose: 19.25 mg/kg/injection, schedule: Q01DX011 (ip), vehicle: carboxymethylcellulose (CMC)) was 100 % of control; the T/C (dose: 77.0 mg/kg/injection, schedule: Q01DX011 (ip), vehicle: carboxymethylcellulose (CMC)) is 105 % of control.

On to `CCOC(=O)Sc1ncnc2nc[nH]c12`, for which the T/C runs as follows: (dose: 7.5 mg/kg/injection, schedule: Q01DX011 (ip), vehicle: carboxymethylcellulose (CMC)) 44 % of control; under setting [2], 48 % of control; under setting [3], 29 % of control and 40 % of control; under setting [4], 17 % of control; under setting [5], 2 % of control.

With `CC(C)Sc1nc(N)nc2nc[nH]c12`, the T/C under setting [6] was 97 % of control, the T/C under setting [3] was 14 % of control and the T/C under setting [4] was 2 % of control.

Regarding `C=CC1CN2CCC1CC2C(O)c1ccnc2ccc(OC)cc12` (stereo not given), the T/C is, setting by setting: (dose: 27.0 mg/kg/injection, schedule: Q01DX011 (ip), vehicle: carboxymethylcellulose (CMC)) 104 % of control; (dose: 27.0 mg/kg/injection, schedule: Q01DX011 (ip), vehicle: other) 202 % of control; (dose: 27.5 mg/kg/injection, schedule: Q01DX011 (ip), vehicle: other) 226 % of control; (dose: 55.0 mg/kg/injection, schedule: Q01DX011 (ip), vehicle: carboxymethylcellulose (CMC)) 114 % of control; (dose: 55.0 mg/kg/injection, schedule: Q01DX011 (ip), vehicle: other) 263 % of control; (dose: 110.0 mg/kg/injection, schedule: Q01DX011 (ip), vehicle: other) 105 % of control and 219 % of control. The T/C under setting [7] was 90 % of control and the T/C (dose: 220.0 mg/kg/injection, schedule: Q01DX011 (ip), vehicle: other) is 204 % of control.

On to `CC(/C=N/N=C(N)N)=N\N=C(N)N`, for which the T/C runs as follows: (dose: 12.5 mg/kg/injection, schedule: Q01DX011 (ip), vehicle: saline) 155 % of control; (dose: 25.0 mg/kg/injection, schedule: Q01DX011 (ip), vehicle: saline) 190 % of control; under setting [8], 169 % of control.

On to `O=c1cn[nH]c(=O)[nH]1`, for which the T/C is 72 % of control (dose: 110.0 mg/kg/injection, schedule: Q01DX011 (ip), vehicle: carboxymethylcellulose (CMC)); 89 % of control under setting [7]; 96 % of control (dose: 440.0 mg/kg/injection, schedule: Q01DX011 (ip), vehicle: carboxymethylcellulose (CMC)).

In the case of `COS(C)(=O)=O`, the T/C by setting is: (dose: 9.0 mg/kg/injection, schedule: Q01DX011 (ip), vehicle: carboxymethylcellulose (CMC)) 167 % of control; under setting [9], 116 % of control; (dose: 18.0 mg/kg/injection, schedule: Q01DX011 (ip), vehicle: carboxymethylcellulose (CMC)) 98 % of control; under setting [10], 114 % of control; under setting [11], 85 % of control; under setting [12], 76 % of control. The T/C (dose: 100.0 mg/kg/injection, schedule: Q01DX011 (ip), vehicle: saline) is 69 % of control.

For `COc1ccccc1NC(=O)CSC(N)=O`, the T/C was 91 % of control under setting [5]; 104 % of control under setting [13]; 71 % of control (dose: 400.0 mg/kg/injection, schedule: Q01DX011 (ip), vehicle: carboxymethylcellulose (CMC)).

Take `CCn1cnc2c(=S)nc(N)[nH]c21`: the T/C is 76 % of control (dose: 0.5 mg/kg/injection, schedule: Q01DX011 (ip), vehicle: carboxymethylcellulose (CMC)); 89 % of control (dose: 1.0 mg/kg/injection, schedule: Q01DX011 (ip), vehicle: carboxymethylcellulose (CMC)); 24 % of control and 49 % of control under setting [6]; 11 % of control (dose: 7.0 mg/kg/injection, schedule: Q01DX011 (ip), vehicle: carboxymethylcellulose (CMC)); 4 % of control and 18 % of control under setting [2].

With `C1CC[N-]CC1.C1CC[N-]CC1.C1CC[N-]CC1.C1CC[N-]CC1.[Cl][Co][Cl]`, the T/C under setting [4] was 160 % of control.

As for `NCC(O)c1ccc(O)c(O)c1` (stereo not given), the T/C under setting [9] was 84 % of control, the T/C under setting [10] is 69 % of control and the T/C under setting [11] was 30 % of control.

As for `Nc1nc(N)c(N=Nc2ccccc2)c(=O)[nH]1`, the T/C reads like this: under setting [4], 74 % of control; under setting [5], 70 % of control; under setting [13], 60 % of control.

On to `COc1ccc2c3c1OC1C(O)C=CC4C(C2)N(C)CCC341` (stereo not given), for which the T/C under setting [11] is 93 % of control, the T/C under setting [8] was 119 % of control and the T/C under setting [12] was 108 % of control.

Take `N#CCSc1nc(N)nc2nc[nH]c12`: the T/C by setting is: (dose: 31.25 mg/kg/injection, schedule: Q01DX011 (ip), vehicle: carboxymethylcellulose (CMC)) 83 % of control; (dose: 62.5 mg/kg/injection, schedule: Q01DX011 (ip), vehicle: carboxymethylcellulose (CMC)) 40 % of control; (dose: 125.0 mg/kg/injection, schedule: Q01DX011 (ip), vehicle: carboxymethylcellulose (CMC)) 31 % of control.
